Data on 3 molecules can be found in PubChem BioAssay (NCI).

Assay [1] has as its system P388 leukemia. Nature of the assay: NCI tumour cell line growth inhibition, 48 h.
Assay [2] has as its system P388/ADR leukemia. Nature of the assay: NCI tumour cell line growth inhibition, 48 h.

Structures are written as SMILES.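 96-well plates; 48 h exposure; 5 concentrations. Endpoints by linear interpolation between flanking doses. Not reached: highest tested concentration assigned. Abbreviation: GI50, concentration required for 50% inhibition of growth. Definition used: TGI = concentration required for complete inhibition of growth.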

Regarding `C=C1C(=O)OC2C1CC1OC2C(C)CCC/C(C)=C\CCC1(C)O` (stereo not drawn), the results for the TGI in assay [1] and in assay [2] were 42.4 µM and 58.2 µM, respectively.

Turning to `O.O=[Se](=O)(O)O.[NH-]C1CCCCC1[NH-].[Pt+2]` (stereo not drawn), in assay [1], the GI50 is 0.433 µM and the TGI came to 30.9 µM. In assay [2], the GI50 is 7.22 µM and the TGI was greater than 100 µM.

Turning to `COc1cccc2c1C(=O)c1c(O)c3c(c(O)c1C2=O)C[C@](O)(C(=O)CO)CC3OC1CC(N)C(OC2CCCCO2)C(C)O1` (stereo partly drawn), the TGI was 0.233 µM in assay [1] and greater than 100 µM in assay [2].
